According to PubChem BioAssay AID248 (DTP/NCI, 2004):
Values joined by “and” are separate entries in the source; they are usually repeats but may differ in a detail not shown here. Equal values may be shown once. Inconclusive results and toxic doses are left out. Rule as the data show it: active = T/C of 150% or more; inactive = T/C below 125%.

Test system: L1210 leukemia ip in BDF1 mice, survival T/C
Assay: NCI In Vivo Anticancer Drug Screen. Data for tumor model L1210 Leukemia (intraperitoneal) in B6D2F1 (BDF1) mice
Details: endpoint: mean survival time, higher = longer survival
Method in brief: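 Mice bearing the transplanted tumor received compound or vehicle. Survival of the treated group was divided by that of the vehicle-treated control group to give the ratio.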

[1] = dose: 100.0 mg/kg/injection, schedule: Q04DX002 (ip), vehicle: saline with Tween-80
[2] = dose: 200.0 mg/kg/injection, schedule: Q04DX002 (ip), vehicle: saline with Tween-80
[3] = dose: 400.0 mg/kg/injection, schedule: Q04DX002 (ip), vehicle: saline with Tween-80
[4] = dose: 100.0 mg/kg/injection, schedule: Q01DX001 (ip), vehicle: saline with Tween-80
[5] = dose: 100.0 mg/kg/injection, schedule: Q01DX009 (ip), vehicle: saline with Tween-80
[6] = dose: 100.0 mg/kg/injection, schedule: Q04DX003 (ip), vehicle: saline with Tween-80
[7] = dose: 200.0 mg/kg/injection, schedule: Q01DX001 (ip), vehicle: saline with Tween-80
[8] = dose: 200.0 mg/kg/injection, schedule: Q01DX009 (ip), vehicle: saline with Tween-80
[9] = dose: 200.0 mg/kg/injection, schedule: Q04DX003 (ip), vehicle: saline with Tween-80
[10] = dose: 400.0 mg/kg/injection, schedule: Q01DX001 (ip), vehicle: saline with Tween-80
[11] = dose: 400.0 mg/kg/injection, schedule: Q01DX009 (ip), vehicle: saline with Tween-80
[12] = dose: 400.0 mg/kg/injection, schedule: Q04DX003 (ip), vehicle: saline with Tween-80
[13] = dose: 100.0 mg/kg/injection, schedule: Q01DX009 (ip), vehicle: Klucel (hydroxypropylcellulose) (HPC)
[14] = dose: 100.0 mg/kg/injection, schedule: Q04DX003 (ip), vehicle: Klucel (hydroxypropylcellulose) (HPC)
[15] = dose: 200.0 mg/kg/injection, schedule: Q01DX009 (ip), vehicle: Klucel (hydroxypropylcellulose) (HPC)
[16] = dose: 200.0 mg/kg/injection, schedule: Q04DX003 (ip), vehicle: Klucel (hydroxypropylcellulose) (HPC)
[17] = dose: 400.0 mg/kg/injection, schedule: Q01DX009 (ip), vehicle: Klucel (hydroxypropylcellulose) (HPC)
[18] = dose: 400.0 mg/kg/injection, schedule: Q04DX003 (ip), vehicle: Klucel (hydroxypropylcellulose) (HPC)
[19] = dose: 50.0 mg/kg/injection, schedule: Q01DX009 (ip), vehicle: saline with Tween-80
[20] = dose: 100.0 mg/kg/injection, schedule: Q01DX001 (ip), vehicle: Klucel (hydroxypropylcellulose) (HPC)
[21] = dose: 200.0 mg/kg/injection, schedule: Q01DX001 (ip), vehicle: Klucel (hydroxypropylcellulose) (HPC)
[22] = dose: 400.0 mg/kg/injection, schedule: Q01DX001 (ip), vehicle: Klucel (hydroxypropylcellulose) (HPC)
[23] = dose: 100.0 mg/kg/injection, schedule: Q01DX001 (ip), vehicle: carboxymethylcellulose (CMC)
[24] = dose: 200.0 mg/kg/injection, schedule: Q01DX001 (ip), vehicle: carboxymethylcellulose (CMC)
[25] = dose: 400.0 mg/kg/injection, schedule: Q01DX001 (ip), vehicle: carboxymethylcellulose (CMC)
[26] = dose: 25.0 mg/kg/injection, schedule: Q01DX001 (ip), vehicle: Klucel (hydroxypropylcellulose) (HPC)
[27] = dose: 50.0 mg/kg/injection, schedule: Q01DX001 (ip), vehicle: Klucel (hydroxypropylcellulose) (HPC)

Measured: T/C

CC1=CCCCC1O (stereo unspecified)
inactive: [1] 93 % of control | [2] 96 % of control | [3] 93 % of control

COc1cc(C=O)ccc1OC(=O)Nc1cc(Cl)ccc1C
inactive: [4] 92 % of control | [5] 94 % of control and 97 % of control | [1] 95 % of control and 88 % of control | [6] 97 % of control | [7] 88 % of control | [8] 106 % of control and 115 % of control | [2] 95 % of control and 98 % of control | [9] 95 % of control | [10] 97 % of control | [11] 105 % of control and 90 % of control | [3] 90 % of control and 91 % of control | [12] 103 % of control

CC(=O)CC(=O)N1CCC(C)CC1
inactive: [13] 96 % of control | [14] 103 % of control | [15] 100 % of control | [16] 101 % of control | [17] 95 % of control | [18] 101 % of control

COCC(O)CCl (stereo unspecified)
inactive: dose: 25.0 mg/kg/injection, schedule: Q01DX009 (ip), vehicle: saline with Tween-80 113 % of control | [19] 113 % of control | [5] 113 % of control

Cc1cc(C)n(/N=C/c2ccc(/C=N/n3c(C)cc(C)c(C#N)c3=O)cc2)c(=O)c1C#N
inactive: [20] 91 % of control | [14] 92 % of control | [21] 87 % of control | [16] 87 % of control | [22] 94 % of control | [18] 90 % of control

CCCCOP(=S)(Cc1ccccc1)OCCCC
inactive: [13] 104 % of control | [15] 104 % of control | [17] 104 % of control

O=C(CCCCCCCCC(=O)N/N=C/c1ccc(Cl)c(Cl)c1)N/N=C/c1ccc(Cl)c(Cl)c1
inactive: [19] 91 % of control | [5] 93 % of control | [6] 89 % of control | [9] 89 % of control

Cc1cc(N(CCO)CCO)c(C)cc1NC(=O)c1ccccc1
inactive: [23] 106 % of control | [24] 101 % of control | [25] 94 % of control

CC1(C)OC2COC(c3[nH]nc(C(N)=O)c3C(=O)NN)C2O1 (stereo unspecified)
inactive: dose: 100.0 mg/kg/injection, schedule: Q01DX005 (ip), vehicle: saline 103 % of control | dose: 200.0 mg/kg/injection, schedule: Q01DX005 (ip), vehicle: saline 97 % of control

CCOC(=O)c1c(NC(=O)CCl)ssc1=S
inactive: [19] 103 % of control | [6] 92 % of control | [9] 91 % of control

CCc1cc2oc(C)c(C)c2c(N=Nc2cccc([N+](=O)[O-])c2)c1O
inactive: dose: 100.0 mg/kg/injection, schedule: Q04DX002 (ip), vehicle: Klucel (hydroxypropylcellulose) (HPC) 96 % of control | dose: 200.0 mg/kg/injection, schedule: Q04DX002 (ip), vehicle: Klucel (hydroxypropylcellulose) (HPC) 96 % of control | dose: 400.0 mg/kg/injection, schedule: Q04DX002 (ip), vehicle: Klucel (hydroxypropylcellulose) (HPC) 93 % of control

CCCCNC1=C(NC(=O)C(Cl)Cl)C(=O)c2ccccc2C1=O
inactive: dose: 2.5 mg/kg/injection, schedule: Q01DX009 (ip), vehicle: saline with Tween-80 103 % of control | dose: 5.0 mg/kg/injection, schedule: Q01DX009 (ip), vehicle: saline with Tween-80 101 % of control | dose: 5.0 mg/kg/injection, schedule: Q04DX003 (ip), vehicle: saline with Tween-80 100 % of control | dose: 10.0 mg/kg/injection, schedule: Q01DX009 (ip), vehicle: saline with Tween-80 98 % of control | dose: 10.0 mg/kg/injection, schedule: Q04DX003 (ip), vehicle: saline with Tween-80 97 % of control

CCN1CC1
inactive: dose: 6.25 mg/kg/injection, schedule: Q01DX009 (ip), vehicle: Klucel (hydroxypropylcellulose) (HPC) 98 % of control | dose: 6.25 mg/kg/injection, schedule: Q04DX003 (ip), vehicle: Klucel (hydroxypropylcellulose) (HPC) 96 % of control | dose: 12.5 mg/kg/injection, schedule: Q01DX009 (ip), vehicle: Klucel (hydroxypropylcellulose) (HPC) 107 % of control | dose: 12.5 mg/kg/injection, schedule: Q04DX003 (ip), vehicle: Klucel (hydroxypropylcellulose) (HPC) 90 % of control | dose: 25.0 mg/kg/injection, schedule: Q04DX003 (ip), vehicle: Klucel (hydroxypropylcellulose) (HPC) 109 % of control

c1ccc2sc(SN3CCOCC3)nc2c1
inactive: [5] 95 % of control | [6] 100 % of control | [8] 92 % of control | [9] 87 % of control | [11] 92 % of control | [12] 89 % of control

O=C1C=C(c2ccccc2)C(c2ccccc2)=C1
inactive: dose: 50.0 mg/kg/injection, schedule: Q01DX001 (ip), vehicle: carboxymethylcellulose (CMC) 101 % of control | [23] 95 % of control | [24] 92 % of control | [25] 103 % of control

Cc1ccc(S(=O)(=O)NC(=O)NCCCS(C)=O)cc1 (stereo unspecified)
inactive: [6] 100 % of control | [9] 102 % of control | [12] 100 % of control

CC(=O)CCC(CCC(C)=O)(CCC(C)=O)[N+](=O)[O-]
inactive: [23] 104 % of control | [24] 104 % of control | [25] 98 % of control

O=C(Nc1ccc(Cl)cc1[N+](=O)[O-])Oc1ccc(-c2ccccc2)cc1Cl
inactive: [4] 92 % of control | [5] 95 % of control and 91 % of control | [1] 101 % of control and 102 % of control | [6] 97 % of control | [7] 94 % of control | [8] 94 % of control and 89 % of control | [2] 101 % of control and 91 % of control | [9] 103 % of control | [10] 89 % of control | [11] 99 % of control and 103 % of control | [3] 88 % of control and 91 % of control | [12] 103 % of control

CC(C)CNC(=O)Nc1ccccc1C(F)(F)F
inactive: [6] 95 % of control | [9] 97 % of control | [12] 97 % of control

CCC(C(O)c1ccccc1)[N+](=O)[O-] (stereo unspecified)
inactive: dose: 100.0 mg/kg/injection, schedule: Q04DX003 (ip), vehicle: other 100 % of control | dose: 200.0 mg/kg/injection, schedule: Q04DX003 (ip), vehicle: other 100 % of control | dose: 400.0 mg/kg/injection, schedule: Q04DX003 (ip), vehicle: other 96 % of control

OC1(c2ccccc2)CCN(Cc2ccccc2)CC1
inactive: [26] 106 % of control | [27] 118 % of control | [20] 93 % of control and 107 % of control

CN1CCN(/N=N/N2CCN(C)CC2)CC1
inactive: [20] 105 % of control | [21] 101 % of control | [22] 100 % of control

c1ccc2c(c1)ccc1cc3c(ccc4ccccc43)cc12
inactive: [26] 106 % of control | [27] 109 % of control | [20] 108 % of control | [21] 108 % of control | [22] 109 % of control

NC(=NCCO)C(N)=NCCO
inactive: dose: 100.0 mg/kg/injection, schedule: Q01DX009 (ip), vehicle: saline 102 % of control | dose: 100.0 mg/kg/injection, schedule: Q04DX003 (ip), vehicle: saline 96 % of control | dose: 200.0 mg/kg/injection, schedule: Q01DX009 (ip), vehicle: saline 94 % of control | dose: 200.0 mg/kg/injection, schedule: Q04DX003 (ip), vehicle: saline 96 % of control | dose: 400.0 mg/kg/injection, schedule: Q01DX009 (ip), vehicle: saline 94 % of control | dose: 400.0 mg/kg/injection, schedule: Q04DX003 (ip), vehicle: saline 100 % of control

CCOC(=O)CCC(NC(=O)c1ccc(N(C)S(=O)(=O)c2ccc(C)cc2)c2ccccc12)C(=O)OCC (stereo unspecified)
inactive: [5] 108 % of control | [6] 97 % of control | [8] 94 % of control | [9] 100 % of control | [11] 92 % of control | [12] 100 % of control

O=S([O-])c1ccc(Cl)cc1.O=S([O-])c1ccc(Cl)cc1.[Zn+2]
inactive: dose: 75.0 mg/kg/injection, schedule: Q01DX001 (ip), vehicle: saline 101 % of control | dose: 150.0 mg/kg/injection, schedule: Q01DX001 (ip), vehicle: saline 101 % of control | dose: 300.0 mg/kg/injection, schedule: Q01DX001 (ip), vehicle: saline 110 % of control

CCCCNC(=O)/C=C/C(=O)NCCCC
inactive: [6] 100 % of control | [9] 100 % of control | [12] 100 % of control
